US20250041422A1, “METHOD OF TREATING ARRHYTHMIA, POPULATION OF PACEMAKER CARDIOMYOCYTES, AND METHOD OF TREATING CARDIAC ARRHYTHEMIA USING POPULATION OF PACEMAKER CARDIOMYOCYTES” (priority 2022, published 2025)
“Also recorded” adds a separate entry of the source. Blank lines part the entries; values can stand above or below the compound they belong to.

How the values were obtained:
aldolase c (Aldoc) = assay: Aldoc transcripts by quantitative real-time PCR in treated Tbx18-PC/fibroblast cocultures; type: cell-based, rat; settings: for Aldolase C expressions / transcriptional expressions of Aldolase C: 4 days; for aldolase c expressions within pacemaker cardiomyocytes: in-vitro, summary statement, concentration not given at the place
Procedure: (§1) The Tbx18-PCs were used as the cell model of pacemaker cardiomyocytes, which were generated by the transduction of VMs with adenoviral human Tbx18 (MOI [multiplicity of infection]: 10; green fluorescent protein [GFP] reporter, ADV-225152, Vector Biolabs, Malvern, USA) for 24 hours (Kapoor et al; Hu et al.). Those with adenovirus-CMV-GFP were used as control VMs (Tsai et al., J Biomed Sci, 2015). For the cocultures of Tbx18-PCs and fibroblasts, a ratio of fibroblasts/VMs ( 1/10) was first plated on fibronectin-coated wells, and adenoviral Tbx18 was transduced for 24 hours one day after seeding to induce PCs. […] Therefore, the beating rates, metabolic and molecular phenotypes, including microelectrode array (MEA), whole transcriptomes, Seahorse analysis, metabolomics, glycolysis metabolites (lactate or DHAP), protein and gene transcripts were analyzed 3-5 days after Tbx18 transduction. The beating rates were recorded by MEA or video. An inverted microscope (AXIO Observer Al, Carl Zeiss AG, Oberkochen, Germany) was used for 10-second video capture. Video was analyzed with Q Capture Pro 6.0 (Teledyne Technologies, CA, USA).
For the experiments of drug treatment, Tbx18-PCs after re-expression of Tbx18 were treated with sodium pyruvate (1 mM, 11360-070, Thermo Fisher Scientific, 3 days), 2-deoxy-D-glucose (2-DG, 5 mM, D8375, Sigma-Aldrich, 3 days), wortmannin (PI3K inhibitor, 100 nM, 12-338, Merck Millipore, MA, USA, 4 days), anti-integrin β1 monoclonal antibody (ltgb1, MAB1987Z, 10 μg/mL, Merck Millipore, 2 days), or SB203580 (p38-MAP kinase inhibitor, 559389, 1 μM, Merck Millipore, 3 days), respectively. Then the beating rate and gene expression were analyzed. […]
(§2) Total RNA was extracted from cultured VMs using the RNeasy® Mini Kit (74106, Qiagen, Venlo, Netherlands). Complementary DNAs (cDNAs) were synthesized using a SuperScript® […] First-Strand Synthesis System (18080051, Thermo Fisher Science). Quantitative real-time PCR (qRT-PCR) was performed using Applied Biosystems™ StepOnePlus Real-Time PCR system with TaqMan probe assays (4331182, Invitrogen, Waltham, Massachusetts, USA) and PrimeTime qPCR Probe Assays (Integrated DNA Technologies, Inc., Coralville, Iowa, USA). The internal control was Gapdh. The conditions of thermocycle used in amplification were denaturation at 95° C. for 15 seconds and annealing and extension step at 60° C. for 60 seconds by 40 cycles. The relative values of gene transcripts were analyzed by ΔΔCt method. All the probes used are listed below in Table 1.
(§3) The cocultures of Tbx18-pacemaker cardiomyocytes (PCs) and fibroblasts, a ratio of fibroblasts/VMs ( 1/10) was first plated on fibronectin-coated wells, and adenoviral Tbx18 (MOI [multiplicity of infection]: 10, ADV-225152, Vector Biolabs, Malvern, USA) was transduced for 24 hours after seeding to induce PCs. After re-expression of Tbx18 were treated with the inhibitors of PI3K (wortmannin, PIK-75, Duvelisib, Alpelisib, Copanlisib, Idelalisib, and Eganelisib), and one IKK inhibitor (BMS-345541) for 4 days. Then the beating rate and Aldoc transcriptional expressions were analyzed. The beating rates were recorded by video. An inverted microscope (AXIO Observer Al, Carl Zeiss AG, Oberkochen, Germany) was used for 10-second video capture. We analyzed the video with Q Capture Pro 6.0 (Teledyne Technologies, CA, USA). Aldoc gene transcriptional expressions were analyzed by quantitative real-time PCR. The protocol is as same as the treatment described previously (FIGS. 31A-31B).
Total RNA was extracted from cultured VMs using the RNeasy® Mini Kit (74106, Qiagen, Venlo, Netherlands). Complementary DNAs (cDNAs) were synthesized using a SuperScript® […] First-Strand Synthesis System (18080051, Thermo Fisher Science). […]

[1] = system: Tbx18-induced pacemaker cardiomyocytes; assay: Beating rate / electrical firing rate of Tbx18-induced pacemaker cardiomyocytes (video or MEA); type: cell-based, rat
Procedure: as §1
(§4) For the experiments of drug treatment, Tbx18-PCs after re-expression of Tbx18 were treated with sodium pyruvate (1 mM, 11360-070, Thermo Fisher Scientific, 3 days), 2-deoxy-D-glucose (2-DG, 5 mM, D8375, Sigma-Aldrich, 3 days), wortmannin (PI3K inhibitor, 100 nM, 12-338, Merck Millipore, MA, USA, 4 days), anti-integrin β1 monoclonal antibody (ltgb1, MAB1987Z, 10 μg/mL, Merck Millipore, 2 days), or SB203580 (p38-MAP kinase inhibitor, 559389, 1 μM, Merck Millipore, 3 days), respectively. Then the beating rate and gene expression were analyzed.
(§5) Tbx18-PCs or human IPS-CMs were transduced with human Aldoc adenovirus (CMV promotor, 068583A, Applied Biological Materials, Richmond, BC, Canada), and CMV-null adenovirus was used as a control (000047A, Applied Biological Materials) for 24 hours. Aldoc overexpression was confirmed by Aldoc transcripts (FIG. 1J). The protein, gene transcripts, and beating rates were analyzed 3 days after transduction. The viral titer used in cell transduction of aldolase c overexpression is MOI of 10. The transduced cells were not subjected to enrichment by the antibiotic selection.
MEA was used to record electrical firing in Tbx18-PCs, Tbx18-PC tissue sheets, or human IPS-CMs. The cells or tissue sheets were seeded on fibronectin-coated MEA CytoView MEA 24-White plate at 37° C. and 5% C02 (M384-tMEA-24W, Axion BioSystems, Atlanta, USA). The electrical firing rates were recorded by Maestro Edge (Axion BioSystems). The continuous recording of electrical signals for 5 minutes was used for the analysis (sampling frequency: 12.5 kHz, low pass and high pass filter: 2 kHz and 0.1 Hz) by AxIS Navigator software Axion BioSystems. In human IPS-CMs, the cells were further treated with epinephrine (150 ng/mL, Taiwan Biotech Co., Ltd) after recording baseline electrical firing rate. Similarly, continuous recording of electrical signals for 5 minutes after the treatment was used for the analysis.
as §3, with “The protocol is as same as the treatment described previously (FIGS. 31A-31B).” left out

Hcn4 = Hcn4 expression in Tbx18-induced pacemaker cardiomyocytes (real-time PCR); type: cell-based, rat; settings: for Hcn4 expression: 3 days, Tbx18-PCs
Procedure: as §4, §5, §2

Tbx18-PC tissue sheets = assay: Beating rate / electrical firing of engineered Tbx18-PC tissue sheets; type: cell-based, rat; settings: epinephrine 0.15 μg/mL
Procedure: The fibroblasts and VMs were mixed in a ratio of 1:10 (fibroblast/VMs, total cell number: 1×10^6) with an extracellular matrix of 10% Matrigel (354230, Corning®) in the cultured-insert (80209, 0.22 mm^2, ibidi GmbH, Grsfelfing, Germany) for gelation at 37° C. The engineered tissue was transduced with adenoviral human Tbx18 or control vectors 24 hours after gelation. The constant beating was usually observed 4-5 days after Tbx18 adenovirus transduction. Therefore, phenotypes were determined using immunofluorescence staining, beating rate (either video recording or microelectrode array), and real-time quantitative PCR after virus transduction for 5-6 days. The autonomic response of Tbx18-PC tissue sheets was evaluated by treatment with epinephrine (Taiwan Biotech Co., Ltd, Taoyuan, Taiwan).
The Tbx18-PC cocultures were treated with 200 nM siRNAs (Dharmacon™, GE Healthcare, Lafayette, CO, USA or GenePharma, Shanghai, China) or negative controls (nontarget siRNAs, D-001810-10-05, Dharmacon™ or negative controls, GenePharma) for 24 hours using DharmaFECT transfection reagent (Dharmacon™) in serum-free and antibiotic-free medium. Cells were incubated at 37° C. in 5% C02 for 96 hours, and the beating rate was recorded by microelectrode array (MEA) or video. Then, total RNA was extracted for real-time PCR analysis. […]

mouse SAN = assay: Heart rate recording (ECG) in mice; type: in vivo; settings: epinephrine 2.5 μg intraperitoneal, control (scramble) mice
Procedure: Male mice (C57BL/6, 26 to 32 g, 13-14 weeks, National Laboratory Animal Center, Taiwan) were mechanically ventilated at a controlled temperature (37° C.±0.5° C.) under general anesthesia (isoflurane). […] AAV9 siRNA or scramble virus with a reporter of green fluorescent protein (1.44×10^9 gene copies; AAV9 scramble siRNA [iAAV01509] and Aldoc siRNA pooled virus [117530940219], Applied Biological Materials, Canada) was added to the pericardial recess through the opening. […] The survival rate was 100%. All animals were included except one scramble animal. One animal from the scramble group was excluded because arrhythmia was observed before the experiment.
Two weeks later, the three-lead surface ECG (Biopac, MP36, CA, USA) was recorded on mice by inserting needle electrodes subcutaneously into the limbs after anesthesia. The heart rate was recorded for 2 minutes first to compare the knockdown and control groups. Then, we performed a peritoneal injection of epinephrine (2.5 μg, Taiwan Biotech) and recorded the heart rate for 5 minutes after the injection. After the recording, the mouse hearts were removed for tissue analysis. ECG data were analyzed by Biopac Student Lab 4.1 software (Biopac).

[2] = in-vitro, summary statement, concentration not given at the place

SMILES: C[S+]([O-])c1ccc(-c2nc(-c3ccncc3)c(-c3ccc(F)cc3)[nH]2)cc1 (stereo not shown) [SB203580]
Aldoc expression (aldolase c (Aldoc); SB203580 1 μM, 3 days, cocultures, vs control): decreased; also recorded: reduced

SMILES: CC(=O)C(=O)[O-].[Na+] [sodium pyruvate]
beating rates ([1]; sodium pyruvate 1 mM, 3 days, Tbx18-PCs): increased | Hcn4 expression (Hcn4; sodium pyruvate 1 mM): increased

SMILES: O=CC[C@@H](O)[C@H](O)[C@H](O)CO [2-DG, 2-deoxy-D-glucose]
beating rate ([1]; 2-DG 5 mM, 3 days, Tbx18-PCs): decreased | Hcn4 expression (Hcn4; 2-DG 5 mM): decreased

SMILES: CNC[C@H](O)c1ccc(O)c(O)c1 [epinephrine]
beating rate (Tbx18-PC tissue sheets; Tbx18-PC tissue sheets): increased | beating rate (Tbx18-PC tissue sheets; control tissue sheets): minimal changes | heart rate (mouse SAN): increased

SMILES: C[C@H](Nc1ncnc2nc[nH]c12)c1cc2cccc(Cl)c2c(=O)n1-c1ccccc1 [Duvelisib]
transcriptional expressions of Aldolase C (aldolase c (Aldoc); 50 nM, control 0.82±0.08, P=0.02): 1.17±0.11

The next lines start with results.

Aldolase C expressions (aldolase c (Aldoc); BMS-345541 5 μM, vs control): increased | aldolase c expressions within pacemaker cardiomyocytes (aldolase c (Aldoc)): increased
SMILES: Cc1ccc2nc(NCCN)c3ncc(C)n3c2c1 [BMS-345541]
beating rate ([1]; BMS-345541 1-10 μM, 4 days, vs control): increased | beating rates [1, 2]: increased | Hcn4 expressions (Hcn4; BMS-345541 5 μM, vs control): increased

aldolase c expressions within pacemaker cardiomyocytes (aldolase c (Aldoc)): increased
SMILES: CC[C@H](Nc1ncnc2[nH]cnc12)c1nc2cccc(F)c2c(=O)n1-c1ccccc1 [Idelalisib]
transcriptional expressions of Aldolase C (aldolase c (Aldoc); 100 nM, control 0.87±0.05, P=0.02): 1.01±0.02 | beating rates [1, 2]: increased

aldolase c expressions within pacemaker cardiomyocytes (aldolase c (Aldoc)): increased
SMILES: C[C@H](NC(=O)c1c(N)nn2cccnc12)c1cc2cccc(C#Cc3cnn(C)c3)c2c(=O)n1-c1ccccc1 [Eganelisib]
transcriptional expressions of Aldolase C (aldolase c (Aldoc); 40 nM, control 0.57±0.03, P=0.013): 0.82±0.07 | beating rates [1, 2]: increased

aldolase c expressions within pacemaker cardiomyocytes (aldolase c (Aldoc)): increased
SMILES: Cc1nc(NC(=O)N2CCC[C@H]2C(N)=O)sc1-c1ccnc(C(C)(C)C(F)(F)F)c1 [Alpelisib]
transcriptional expressions of Aldolase C (aldolase c (Aldoc); 250 nM, control 0.87±0.05, P=0.008): 1.13±0.05 | beating rates [1, 2]: increased

Aldolase C expressions (aldolase c (Aldoc); PIK-75 high dose (10 nM), vs control): increased | aldolase c expressions within pacemaker cardiomyocytes (aldolase c (Aldoc)): increased
SMILES: Cc1ccc([N+](=O)[O-])cc1S(=O)(=O)N(C)/N=C/c1cnc2ccc(Br)cn12 [PIK-75]
beating rate ([1]; PIK-75 high dose (10 nM), 4 days, vs control): increased | beating rate ([1]; PIK-75 low dose (1-5 nM), 4 days, vs control): increased | beating rates [1, 2]: increased

aldolase c expressions within pacemaker cardiomyocytes (aldolase c (Aldoc)): increased
SMILES: COc1c(OCCCN2CCOCC2)ccc2c1N=C(NC(=O)c1cnc(N)nc1)N1CCN=C21 [Copanlisib]
transcriptional expressions of Aldolase C (aldolase c (Aldoc); 10 nM, control 0.64±0.09, P=0.002): 1.32±0.09 | beating rates [1, 2]: increased
